Experimental data published in US20120040920A1, “OLIGOSACCHARIDE ALDONIC ACIDS AND THEIR TOPICAL USE” (priority 1999, published 2012).

Key:
[1] = antioxidant property, anthralin test method; type: physicochemical; details: oil-in-water cream, 0.4% anthralin, test substance 0.1 M, 24 hours
Description: (§1) An antioxidant may be defined as a substance capable of preventing or inhibiting oxidation. […] The antioxidant property is readily determined by using any one of the following test methods: prevention or retardation of air oxidation of (a) anthralin, (b) hydroquinone, or (c) banana peel. A freshly prepared anthralin solution or cream is bright yellow, and an air oxidized one is brownish or black. A hydroquinone solution or cream is colorless or white color, and an air oxidized one is brownish or black. A freshly peeled banana peel is light yellow in color and an oxidized one ranges in color from tan, dark tan, brown to brownish black.
Antioxidant property of an oligosaccharide aldonic acid may be determined by utilizing anthralin test method as follows.
Anthralin also known as dithranol is a yellowish powder, and a composition containing anthralin without a suitable antioxidant is chemically unstable even at room temperature. For example, anthralin 0.05% in an oil-in-water cream changed in color from yellow to gray within 24 hours at room temperature, and the cream became brownish within 48 hours. Under anhydrous condition, anthralin 0.05% ointment prepared from white petrolatum 2 parts and mineral oil 1 part by weight changed in color from bright yellow to grayish yellow within 24 hours, and the ointment became brownish after 12 days at room temperature.
Based on the above observations, an oil-in-water cream containing 0.4% anthralin with or without a known antioxidant was used as a positive or vehicle control.

[2] = gel matrix formation on evaporation of an aqueous solution at room temperature; type: physicochemical; details: for gel matrix formation: 1 g in 1 ml water, 20-25° C., slow evaporation; for acid content of the gel film / water retained in the gel film (gel matrix): by weight, 1 g acid in 1 ml water evaporated at room temperature; for original water evaporated: 1 g acid in 1 ml water, room temperature
Description: In contrast to an alpha hydroxyacid and polyhydroxyacid, an oligosaccharide aldonic acid can form a gel matrix when its aqueous solution is evaporated at room temperature. The transparent gel obtained retains certain amount of water forming a clear gel matrix. The amount of water retention depends on individual oligosaccharide aldonic acid. Examples of gel matrix preparations are provided below.
In one example, a gel matrix can be formed when aqueous solution comprising an oligosaccharide aldonic acid is evaporated at room temperature. The transparent gel thus obtained retains certain amount of water forming a clear gel matrix. The amount of water retention depends on individual oligosaccharide aldonic acid. For example, maltobionic acid 1 g in a beaker was dissolved in water 1 ml, and the solution thus obtained was left at room temperature. Fifty percent of the original water had been evaporated at the end of 24 hours, and 57% at the end of 48 hours, and 60% at the end of 72 hours, and no more or minimal evaporation of water could be detected after 72 hours. A clear gel film thus obtained contained 29% water complexed with maltobionic acid molecules. In the same manner, lactobionic acid formed a clear gel matrix with 14% water molecules and cellobionic acid formed a transparent gel with 7% water molecules.
A typical experiment to determine a gel matrix formation of an oligosaccharide aldonic acid may be carried out as follows.
Maltobionic acid 1 g in a beaker of 3.6 cm diameter and 3.6 cm height was dissolved in water 1 ml, and the solution thus obtained was left at room temperature between 20-25° C. to allow a slow evaporation of the water. […] The continuous transparent film thus obtained consisted of 71% maltobionic acid and 29% water by weight, and was formed as a complex gel matrix between maltobionic acid molecules and water molecules.

[3] = antioxidant property, hydroquinone test method; type: physicochemical; details: oil-in-water cream, 2% hydroquinone, test substance 0.4 M, room temperature, 5 days
Description: as §1
Antioxidant property of an oligosaccharide aldonic acid may also be determined by utilizing hydroquinone test method as follows. Hydroquinone also known as 1,4-dihydroxybenzene is a white powder, and a composition containing hydroquinone without a suitable antioxidant is chemically unstable even at room temperature. For example, hydroquinone 2% in an oil-in-water cream changed in color from white to grey within 2 hours, and the cream became light brown within 48 hours and dark brown after 72 hours at room temperature.

[4] = antioxidant property, banana peel test method; details: 2×2 cm peels in 5 ml 0.1 M test solution; water control tan within 4 hours
Description: as §1
For example, in control experiments, fresh banana peels cut into sizes of 1×2 cm in 50 mm plastic petri dishes containing 5 ml water at neutral or acidic pH changed in color from white-yellowish to tan within 6 hours at room temperature, and changed to dark tan color during the next period of 24 to 72 hours.
Antioxidant property of an oligosaccharide aldonic acid may also be determined by utilizing banana peel test method as follows.
A fresh ripe banana peel cut into sizes of 2×2 cm has the outer layer light yellow in color. These freshly cut banana peels after exposed to air or immersed in an aqueous solution without an antioxidant in 50 mm plastic petri dishes rapidly changed in color from yellowish to tan within 3 hours, dark tan within 24 hours and brown black after 72 hours. A test substance including a positive control such as vitamin C, citric acid or N-acetylcysteine was prepared as 0.1 M concentration, and each test dish contained 5 ml test solution. Freshly cut banana peels 2×2 cm in sizes were immersed in 5 ml test solutions including known antioxidants and vehicle controls with pH at 7.0 and 4.0. […] The same results were also found for the known antioxidant substances; vitamin C, citric acid and N-acetylcysteine.

[5] = tested on: xerosis with flaky dry skin; test: topical treatment of xerosis of forearms; type: in vivo, human; details: 5% water-in-oil cream twice daily, two weeks, person
Description: A subject, having xerosis with flaky dry skin condition of their forearms topically applied twice daily maltobionic acid 5% water-in-oil cream for two weeks.

[6] = tested on: chronic atopic eczema and pruritic dry skin; test: topical treatment of chronic atopic eczema and pruritic dry skin; type: in vivo, human; details: 17% cream twice daily, person
Description: A subject with chronic atopic eczema and pruritic dry skin topically applied twice daily maltobionic acid 17% cream to itchy skin areas of eczema and dry skin lesions for two weeks.

[7] = tested on: acute erythema on thighs; test: topical treatment of acute erythema after hot shower with alkaline soap; type: in vivo, human; details: 3% partially neutralized cream, left thigh, person; control side persisted
Description: A subject with sensitive skin developed acute erythema on their both thighs after taking hot shower using alkaline soap. They applied 3% partially neutralized maltobionic acid cream on their left thigh and a control cream on their right thigh.

Row | Structure (SMILES) | colour change of anthralin cream [1] | gel matrix formation [2] | colour change of hydroquinone cream [3] | colour change of banana peels [4] | further results
1 | O=C(O)C(=O)O [oxalic acid, reference compound] | did not change the color | – | – | – | –
2 | O=C(O)[C@H](O)[C@@H](O)[C@H](O)[C@H](O)CO [gluconic acid, reference compound] | – | did not form any form of a gel matrix | – | – | –
3 | O=C(O)[C@H](O)[C@@H](O)[C@H](O[C@@H]1O[C@H](CO)[C@@H](O)[C@H](O)[C@H]1O)[C@H](O)CO [cellobionic acid] | did not change the color | clear continuous gel film was formed | did not change color | – | acid content of the gel film [2]: 93%; water retained in the gel film (gel matrix) [2]: 7%
4 | O=C1O[C@H]([C@@H](O)CO)C(O)=C1O [vitamin C, reference compound] | did not change the color | – | did not change color | same results | –
5 | CC(=O)N[C@@H](CS)C(=O)O [N-acetylcysteine, reference compound] | – | – | did not change color | same results | –
6 | O=C(O)[C@H](O)[C@@H](O)[C@H](O[C@@H]1O[C@H](CO)[C@H](O)[C@H](O)[C@H]1O)[C@H](O)CO [maltobionic acid] | did not change the color | clear continuous gel film was formed | did not change color | did not change color | original water evaporated ([2]; end of 24 hours): Fifty; original water evaporated ([2]; end of 48 hours): 57%; original water evaporated ([2]; end of 72 hours): 60%; original water evaporated ([2]; end of 96 hours): 60.5%; water retained in the gel film (gel matrix) [2]: 29%; acid content of the gel film ([2]; listed as Maltobionic acid): 71%; water retained in the gel film (gel matrix) ([2]; listed as Maltobionic acid): 29%; dry skin condition [5]: dry skin condition disappeared completely; eczema lesions ([6]; after two weeks): improved significantly; condition of treated skin ([6]; within a week): became smooth and less dry and itchy; erythema and itch [7]: disappeared within a few minutes
7 | O=C(O)CC(O)(CC(=O)O)C(=O)O [citric acid, reference compound] | – | – | did not change color | same results | –
